# Measurements published in patent publication US10150761B2, “Substituted pyridine-piperazinyl analogues as RSV antiviral compounds” (Janssen Sciences Ireland UC, priority 2013, dated 2018).
# Where a name gives a salt, the structure may show the parent alone.
# What was measured:
# [1] = Cytotoxicity in HeLa cells (ATP content, ATPlite kit); type: cell-based; conditions: human, three days incubation, read-out: TOX HELA pCC50 (converted)
# Experimental: (§1) Glycosaminoglycan sulfation requirements for respiratory syncytial virus infection; Journal of virology (2000), 74(22), 10508-13) and was in-licensed from the NIH (Bethesda, Md., USA). Finally, 20 μL of a HeLa cell suspension (3,000 cells/well) were plated. Medium, virus- and mock-infected controls were included in each test. The wells contain 0.05% DMSO per volume. Cells were incubated at 37° C. in a 5% CO2 atmosphere. Three days post-virus exposure, viral replication was quantified by measuring GFP expression in the cells by an in house developed MSM laser microscope (Tibotec. Beerse, Belgium). The EC50 was defined as the 50% inhibitory concentration for GFP expression. In parallel, compounds were incubated for three days in a set of white 384-well microtiter plates (Corning) and the cytotoxicity of compounds in HeLa cells was determined by measuring the ATP content of the cells using the ATPlite kit (PerkinElmer, Zaventem, Belgium) according to the manufacturer's instructions. The CC50 was defined as the 50% concentration for cytotoxicity.
# rgRSV224 virus = experiment: Antiviral activity: rgRSV224 (GFP) replication in HeLa cells; type: cell-based, respiratory syncytial virus (RSV); conditions: human respiratory syncytial virus, HeLa, 72 h, read-out: RSV HELA pEC50, rgRSV224 virus (MOI=1), HeLa cells, GFP expression, three days post-virus exposure (converted)
# Experimental: Black 384-well clear-bottom microtiter plates (Corning, Amsterdam, The Netherlands) were filled via acoustic drop ejection using the echo liquid handler (Labcyte, Sunnyvale, Calif.), 200 nL of compound stock solutions (100% DMSO) were transferred to the assay plates, 9 serial 4-fold dilutions of compound were made, creating per quadrant the same compound concentration. The assay was initiated by adding 10 μL of culture medium to each well (RPMI medium without phenol red, 10% FBS-heat inactivated, 0.04% gentamycin (50 mg/mL). All addition steps are done by using a multidrop dispenser (Thermo Scientific, Erembodegem, Belgium). Next, rgRSV224 virus (MOI=1) diluted in culture medium was added to the plates, rgRSV224 virus is an engineered virus that includes an additional GFP gene (Hallak L K, Spillmann D. Collins P L, Peeples M E.
# as §1
Compound,CC50 at 3 days [1] [nM],EC50 (rgRSV224 virus) [nM],melting point [°C]
CC(=O)c1cccc(-c2nccnc2N2CCN(c3ccccc3)CC2)c1 [Compound 1],2290,955,172.56
CC(C)(O)c1ncccc1N1CCN(c2ccncc2)CC1 [Compound 70],> 100000,19100,163
COc1ccc(-c2ncccc2N2CCN(c3ccncc3)CC2)cc1 [Compound 5],> 100000,427,
Fc1ccc(-c2ncccc2N2CCN(c3ccncc3)CC2)cc1 [Compound 13],> 89100,603,173.62
c1cnc(-c2ccc(N3CCCCC3)cc2)c(N2CCN(c3ccncc3)CC2)c1 [Compound 60],22900,355,92
CC(=O)c1cccc(-c2ncccc2N2CCN(c3ccccc3)CC2)c1 [Compound 8],> 100000,646,175.94
COc1ccc(C(C)(O)c2ncccc2N2CCN(c3ccncc3)CC2)cc1 (stereo not drawn) [Compound 72],> 100000,525,
c1cnc(-c2cccc3cc[nH]c23)c(N2CCN(c3ccncc3)CC2)c1 [Compound 39],55000,851,162
c1coc(-c2ccc(-c3nccnc3N3CCN(c4ccncc4)CC3)cc2)c1 [Compound 55],36300,794,153.75
c1cnc(-c2cc3ccccc3o2)c(N2CCN(c3ccncc3)CC2)c1 [Compound 23],> 50100,58.9,252
c1cnc(-c2cccc3ncccc23)c(N2CCN(c3ccncc3)CC2)c1 [Compound 31],> 97700,724,96
Cn1ccc2c(-c3ncccc3N3CCN(c4ccncc4)CC3)cccc21 [Compound 43],45700,30.2,170
c1cnc(-c2coc3ccccc23)c(N2CCN(c3ccncc3)CC2)c1 [Compound 38],44700,132,210
OC(c1ccccc1)(c1ccccc1)c1ncccc1N1CCN(c2ccncc2)CC1 [Compound 68],> 25100,25.1,260
c1ccc(Oc2nccnc2N2CCN(c3ccncc3)CC2)cc1 [Compound 54],87100,10700,130
c1cc(N2CCN(c3nccnc3-c3ccc4occc4c3)CC2)ccn1 [Compound 7],> 97700,871,
Clc1cccc(-c2ncccc2N2CCN(c3ccncc3)CC2)c1 [Compound 3],> 100000,550,
c1cnc(-c2ccc3c(c2)OCO3)c(N2CCN(c3ccncc3)CC2)c1 [Compound 9],> 100000,692,187.8
Cn1cc(-c2ccc(-c3ncccc3N3CCN(c4ccncc4)CC3)cc2)cn1 [Compound 66],70800,933,
Cn1ccc2ccc(-c3ncccc3N3CCN(c4ccncc4)CC3)cc21 [Compound 41],49000,11.5,174.57
c1cnc(-c2ccc3[nH]ccc3c2)c(N2CCN(c3ccncc3)CC2)c1 [Compound 36],44700,79.4,252
COc1ccc(C(O)c2ncccc2N2CCN(c3ccncc3)CC2)cc1 (stereo not drawn) [Compound 71],> 100000,39800,
CC1CN(c2cccnc2-c2ccc3ccn(C)c3c2)CCN1c1ccncc1 (stereo not drawn) [Compound 52],44700,13.5,
c1ccc(-c2ccc(-c3ncccc3N3CCN(c4ccncc4)CC3)cc2)cc1 [Compound 59],10700,525,98

Compound,CC50 at 3 days [1] [nM],EC50 (rgRSV224 virus) [nM],melting point [°C]
c1cnc(-c2ccc3c(c2)CCO3)c(N2CCN(c3ccncc3)CC2)c1 [Compound 30],1700,603,200
c1ccc(Cc2nccnc2N2CCN(c3ccncc3)CC2)cc1 [Compound 53],75900,3390,
COc1ccc(-c2ncccc2N2CCN(c3ccncc3)CC2)cn1 [Compound 17],> 97700,437,138
Cc1ccc(-c2ccc(-c3ncccc3N3CCN(c4ccncc4)CC3)cc2)o1 [Compound 65],11000,191,230
c1cnc(-c2cccc3ccccc23)c(N2CCN(c3ccncc3)CC2)c1 [Compound 26],7410,85.1,90
CCn1ccc2cc(-c3ncccc3N3CCN(c4ccncc4)CC3)ccc21 [Compound 37],21900,30.9,110
COc1cc(N2CCN(c3cccnc3-c3ccccc3)CC2)ccn1 [Compound 29],257,123,
Clc1ccc(-c2ncccc2N2CCN(c3ccncc3)CC2)c(Cl)c1 [Compound 14],40700,186,
Clc1ccc(-c2ncccc2N2CCN(c3ccncc3)CC2)cc1 [Compound 15],891,309,
c1cnc(-c2ccc(C3CCCCC3)cc2)c(N2CCN(c3ccncc3)CC2)c1 [Compound 61],3470,832,
N#CCCn1ccc2ccc(-c3ncccc3N3CCN(c4ccncc4)CC3)cc21 [Compound 48],> 100000,166,
COc1ccc(C(O)(c2ccc(OC)cc2)c2ncccc2N2CCN(c3ccncc3)CC2)cc1 [Compound 64],> 93300,50.1,
CC(C)Oc1ccc(-c2ncccc2N2CCN(c3ccncc3)CC2)cn1 [Compound 19],19100,525,
N#CCCn1ccc2cc(-c3ncccc3N3CCN(c4ccncc4)CC3)ccc21 [Compound 51],55000,74.1,
COc1cc(-c2ncccc2N2CCN(c3ccncc3)CC2)ccn1 [Compound 18],> 97700,832,
CN(C)c1ccc(-c2ncccc2N2CCN(c3ccncc3)CC2)cc1 [Compound 34],74100,295,
c1cnc(-c2cccc3[nH]ccc23)c(N2CCN(c3ccncc3)CC2)c1,,,262
Cn1nccc1-c1ccc(-c2ncccc2N2CCN(c3ccncc3)CC2)cc1 [Compound 67],97700,407,
COc1ccc(-c2ncccc2N2CCN(c3ccncc3)CC2)cc1OC [Compound 16],> 100000,977,
COCCCn1c(-c2ncccc2N2CCN(c3ccncc3)CC2)cc2ccccc21 (as salt: fumarate),,,168
N#Cc1ccc(-c2ncccc2N2CCN(c3ccncc3)CC2)cc1 [Compound 28],> 100000,589,
OC1(c2ccccc2)CCN(c2ncccc2N2CCN(c3ccncc3)CC2)CC1 [Compound 73],63100,631,
Cn1c(-c2ncccc2N2CCN(c3ccncc3)CC2)cc2ccccc21 [Compound 40],53700,25.1,
